“Also recorded” adds a separate entry of the source.
Tests used:
NZB/NZW mice [1] = assay: Survival of SLE model mice; format: in vivo
Procedure: (§1) In vivo studies on the activity of arsenic compound were carried out by using an experimental animal model of human Systemic Lupus Erythematosus. NZB/NZW denotes the mouse strain that spontaneously develops an autoimmune syndrome having notable similarities to human Systemic Lupus Erythematosus. Autoimmune disease in NZB/NZW mice is characterized by antinuclear antibodies (IgG) production about 4 months of age, and glomerulonephritis with proteinuria is developed when at 9 months of age, and that is the major cause of death (uremia).
(§2) At 24 weeks of age, mice (3 groups) were treated 3 times per week with PBS (Group I as positive control), 2.5 mg/kg of As2O3 (Group II), or 5 mg/kg of As2O3 (Group III) administered intraperitoneally. The treatment was stopped at 28 weeks of age. Mice were observed daily for clinical signs of disease and for mortality and were bled every 4 weeks for determination of anti-DNA antibody production.
Coincident with ameliorating the clinical signs of severe immune complex nephritis, a dramatic prolongation of survival was observed.

dsDNA = assay: Serum IgG anti-dsDNA ELISA in SLE model mice; format: in vivo, NZB/NZW mice
Procedure: as §1, §2
Standard ELISA assay to measure the serum levels of anti-DNA antibodies was performed as follows. The plates were coated 10 μg/mL mBSA 4° C. overnight before coating dsDNA and ssDNA diluted with PBS to concentration of 7.5 μg/mL. ssDNA was prepared by boiling for 20 min then placed on ice immediately for 20 min. After overnight incubation at 4° C., the plates were washed and blocked with gelatin-PBS solution. The serum was diluted and then added to the appropriate wells, which were then incubated at 37° C. for 45 min. Horseradish peroxidase-comjugated anti-mouse γ-chain-specific antibodies were added. After incubation at 37° C. for 50 min, then room temperature for 10 min, 2,2′-azino-bisC3-ethylbenzthiazoline-6-sulphonic acid (ABTS) solution was used as substrate and the absorbance was measured at 405 nm. The level of anti-DNA IgG is presented as ELISA units (EU/ml) compared with mAb 10F10. The OD value generated by 74 ng/ml of 10F10 Ab was defined as 1 EU/ml for anti-DNA IgG. The level of anti-nucleosome IgG was calculated as EU by comparison with 10F10 Ab. The absorbance value generated by 231 ng/ml of 10F10 Ab was defined as 1 EU/ml of anti-nucleosome IgG.

Fibroblasts = assay: DAPI staining of apoptotic bodies in fibroblasts; format: cell-based, human; conditions: 24 hours
Procedure: Fibroblasts were treated with different concentrations of ATO for 24 hours, cells were fixed and the apoptotic bodies were detected by DAPI staining.

NZB/NZW mice [2] = assay: Severe glomerulonephritis (proteinuria by urine dipstick) in SLE model mice; format: in vivo; conditions: for Mice with severe glomerulonephritis (%): proteinuria more than 1 g/L (2+)
Procedure: as §1, §2
Urine protein levels were determined by colorimetric analysis using dipsticks (Multistix®, Bayer). Severe glomerulonephritis was defined as proteinuria more than 1 g/L (2+) by urine dipstick.

[3] = tested on: white blood cells in BALF; assay: Differential white blood cell count in BALF, OVA-immunized mice; format: in vivo, BALB/c mice; conditions: for Lymphocyte concentration in BALF / Neutrophil concentration in BALF: mean; for Eosinophil concentration in BALF / Macrophage concentration in BALF: mean ± SD
Procedure: (§3) BALB/c mice (female, 6-8 weeks) were immunized with ovalbumin (OVA) at day 0, 14, 21 and 28. 38 days later, animals were injected with arsenic trioxide (ATO) i.p. for 7 days and antigen challenges with OVA were performed at day 42, 43, 44. At day 45, the airway enhanced pause (PenH) values were measured. 48 hours after the last antigen challenges, the mice were sacrificed, the trachea cannulated, and bronchoalveolar lavage (BAL) was performed by four repeated lavages with balanced salt solution (HBSS) injected into the lungs via the trachea. Total cell counts were performed with a hemocytometer after staining with trypan blue, and then cytospins were prepared, and a differential count of 300 cells per slide was performed. To obtain the absolute number of each leukocyte subtype in the lavage, the percentage of each cell type was multiplied by the total number of cells that were recovered from the bronchoalveolar lavage fluid (BALF). Eotaxin in the BALF was measured via ELISA. Four groups of mice were treated as Table 3.1.
(§4) Group A mice were challenged by PBS only and then treated by PBS, too. Group B mice were immunized by ovalbumin and then treated by PBS only. Group C mice were immunized by ovalbumin and then treated by arsenic trioxide in a dosage of 2.5 mg per kg for mice. Group D mice were challenged by ovalbumin as group B and C and then treated by arsenic trioxide in a dosage of 5 mg/kg.
The white blood cells in BALF were counted and differentiated. Every kind of white cell was increased in immunized groups when in comparison with the non-immunized group.

BALB/c mice = assay: Airway responsiveness to methacholine (PenH, pulmonary function test), OVA-immunized mice; format: in vivo
Procedure: as §3, §4
The mice were challenged with methacholine (Mch.) in an increasing concentration and the airway constriction of the mice was measured by using pulmonary function test, whereafter the data of Table 3.5 was obtained. […] The result is also consistent with the results of eotaxin and eosinophil in BALF.

arsenic trioxide
survival rate (%) (NZB/NZW mice [1]; 2.5 mg/kg, 0 weeks): 100% | survival rate (%) (NZB/NZW mice [1]; 2.5 mg/kg, 22 weeks): 100% | survival rate (%) (NZB/NZW mice [1]; 2.5 mg/kg, 31 weeks): 100% | survival rate (%) (NZB/NZW mice [1]; 2.5 mg/kg, 38 weeks): 83.3% | survival rate (%) (NZB/NZW mice [1]; 2.5 mg/kg, 39 weeks): 66.7% | survival rate (%) (NZB/NZW mice [1]; 2.5 mg/kg, 40 weeks): 66.7% | survival rate (%) (NZB/NZW mice [1]; 2.5 mg/kg, 41 weeks): 66.7% | survival rate (%) (NZB/NZW mice [1]; 2.5 mg/kg, 42 weeks): 50% | survival rate (%) (NZB/NZW mice [1]; 5 mg/kg, 0 weeks): 100% | survival rate (%) (NZB/NZW mice [1]; 5 mg/kg, 22 weeks): 100% | survival rate (%) (NZB/NZW mice [1]; 5 mg/kg, 31 weeks): 66.7% | survival rate (%) (NZB/NZW mice [1]; 5 mg/kg, 38 weeks): 66.7% | survival rate (%) (NZB/NZW mice [1]; 5 mg/kg, 39 weeks): 66.7% | survival rate (%) (NZB/NZW mice [1]; 5 mg/kg, 40 weeks): 66.7% | survival rate (%) (NZB/NZW mice [1]; 5 mg/kg, 41 weeks): 66.7% | survival rate (%) (NZB/NZW mice [1]; 5 mg/kg, 42 weeks): 66.7% | treated mice still alive (NZB/NZW mice [1]; after 43 weeks): 50% | IgG Anti-dsDNA titer (dsDNA; 2.5 mg/kg i.p. 3 times per week, before treatment): 0.262 ELISA Unit | IgG Anti-dsDNA titer (dsDNA; 2.5 mg/kg, 4 weeks after treatment): 0.572 ELISA Unit | IgG Anti-dsDNA titer (dsDNA; 2.5 mg/kg, 8 weeks after treatment): 0.464 ELISA Unit | IgG Anti-dsDNA titer (dsDNA; 2.5 mg/kg, 12 weeks after treatment): 0.442 ELISA Unit | IgG Anti-dsDNA titer (dsDNA; 5 mg/kg i.p. 3 times per week, before treatment): 0.362 ELISA Unit | IgG Anti-dsDNA titer (dsDNA; 5 mg/kg, 4 weeks after treatment): 0.285 ELISA Unit | IgG Anti-dsDNA titer (dsDNA; 5 mg/kg, 8 weeks after treatment): 0.357 ELISA Unit | IgG Anti-dsDNA titer (dsDNA; 5 mg/kg, 12 weeks after treatment): 0.702 ELISA Unit | anti-DNA antibody levels in sera compared to PBS (Tables 4.1 and 4.2, ssDNA and dsDNA) (dsDNA; NZB/NZW mice, 2.5 or 5 mg/kg): significantly lower anti-DNA antibody levels | apoptotic bodies by DAPI staining (Fibroblasts; 1 μM): no obvious apoptosis | apoptotic bodies by DAPI staining (Fibroblasts; 2.5 μM): no obvious apoptosis | apoptotic bodies by DAPI staining (Fibroblasts; 5 μM): obvious apoptotic bodies present | apoptotic bodies by DAPI staining (Fibroblasts; 10 μM): both apoptosis and necrosis | onset of severe proteinuria in comparison with untreated animals (NZB/NZW mice [2]; 2.5 mg/kg ATO and 5 mg/kg ATO): marked delay in the onset of severe proteinuria | Mice with severe glomerulonephritis (%) (NZB/NZW mice [2]; 2.5 mg/kg, 37 weeks): 16.67% | Mice with severe glomerulonephritis (%) (NZB/NZW mice [2]; 2.5 mg/kg, 40 weeks): 40% | Mice with severe glomerulonephritis (%) (NZB/NZW mice [2]; 5 mg/kg, 37 weeks): 25% | Mice with severe glomerulonephritis (%) (NZB/NZW mice [2]; 5 mg/kg, 40 weeks): 25% | Lymphocyte concentration in BALF ([3]; Group C: OVA, ATO 2.5 mg/kg): 37.0 ×1000 cells/ml | Neutrophil concentration in BALF ([3]; Group C: OVA, ATO 2.5 mg/kg): 200.7 ×1000 cells/ml | Eosinophil concentration in BALF ([3]; Group C: OVA, ATO 2.5 mg/kg): 28.6 ± 13.0 ×1000 cells/ml | Macrophage concentration in BALF ([3]; Group C: OVA, ATO 2.5 mg/kg): 621.0 ± 199.6 ×1000 cells/ml | Lymphocyte concentration in BALF ([3]; Group D: OVA, ATO 5 mg/kg): 28.7 ×1000 cells/ml | Neutrophil concentration in BALF ([3]; Group D: OVA, ATO 5 mg/kg): 244.0 ×1000 cells/ml | Eosinophil concentration in BALF ([3]; Group D: OVA, ATO 5 mg/kg): 33.2 ± 12.5 ×1000 cells/ml | Macrophage concentration in BALF ([3]; Group D: OVA, ATO 5 mg/kg): 499.1 ± 131.6 ×1000 cells/ml | effect on eosinophil number in BALF ([3]; group C and D vs group B): diminish significantly the eosinophil number | effect on airway hyper-reactivity / responsiveness to methacholine (BALB/c mice; BALB/c mice, especially 2.5 mg/kg): does decrease the airway responsiveness; also recorded: successfully blocked | airway constriction by pulmonary function test (PenH) (BALB/c mice; Group C: ATO 2.5 mg/kg, Mch 6.25 mg/ml, mean ± SD): 3.62 ± 0.47 | airway constriction by pulmonary function test (PenH) (BALB/c mice; Group C: ATO 2.5 mg/kg, Mch 12.5 mg/ml, mean ± SD): 7.83 ± 1.13 | airway constriction by pulmonary function test (PenH) (BALB/c mice; Group C: ATO 2.5 mg/kg, Mch 25 mg/ml, mean ± SD, p<0.05 vs Group B): 10.15 ± 0.84 | airway constriction by pulmonary function test (PenH) (BALB/c mice; Group C: ATO 2.5 mg/kg, Mch 50 mg/ml, mean, p<0.05 vs Group B): 9.83 | airway constriction by pulmonary function test (PenH) (BALB/c mice; Group D: ATO 5 mg/kg, Mch 6.25 mg/ml, mean ± SD): 2.55 ± 0.35 | airway constriction by pulmonary function test (PenH) (BALB/c mice; Group D: ATO 5 mg/kg, Mch 12.5 mg/ml, mean ± SD): 8.82 ± 0.88 | airway constriction by pulmonary function test (PenH) (BALB/c mice; Group D: ATO 5 mg/kg, Mch 25 mg/ml, mean ± SD): 11.57 ± 1.52 | airway constriction by pulmonary function test (PenH) (BALB/c mice; Group D: ATO 5 mg/kg, Mch 50 mg/ml, mean): 12.51

— US20060292243A1, “Arsenic compounds for the treatment of the arsenic-sensitive blast-cell related diseases” (priority 2005, published 2006)
